Data taken from US20100272797A1, “Pharmaceutical Composition for Treating Hepatitis C Virus Infection Comprising HMG-COA Reductase Inhibitor and Bile Acid” (HANALL PHARMACEUTICAL COMPANY, LTD., priority 2007, published 2010).

Assays:
[1] = in vivo, absorbed by passive diffusion; cited from earlier work
EMC virus = test: Test Example 1: inhibitory effects on EMCV in A549 cells, MTT assay; assay type: cell-based; conditions: A549 cells infected with EMC virus, IFN 20 IU/ml, fluvastatin 5 μM, UDCA 61.9 μM as named
[2] = human, in vivo; cited from earlier work

SMILES	absorbed drug excreted in the form of bile [1]	Average (MTT absorbance) (EMC virus; absorbance 550-600 nm, N 10)	Survival rate (antivirus activity) (EMC virus; vehicle = 0.0)	hepatitis patients with continuous increase in transaminase levels [2]	share of such patients with increase in blood transaminase levels within 12 weeks after administration [2]	transaminase level elevation relative to upper limit of normal [2]
C[C@H](CCC(=O)O)[C@H]1CC[C@H]2[C@@H]3[C@@H](O)C[C@@H]4C[C@H](O)CC[C@]4(C)[C@H]3CC[C@]12C [ursodeoxycholic acid]	about 50%					
CC(C)n1c(/C=C/C(O)CC(O)CC(=O)O)c(-c2ccc(F)cc2)c2ccccc21 (racemic) [Fluvastatin, [R,S-(E)]-(±)-7-[3-(4-fluorophenyl)-1-(1-methylethyl)-1H-indol-2-yl]-3,5-dihydroxy-6-heptanoate]		0.8638	1.7	about 1.1%	At least 90%	at least 3 times the upper limit of normal
